Reference: patent publication US20260078130A1, “NAMPT MODULATORS, PREPARATIONS, AND USES THEREOF” (SIRONAX LTD., priority 2022, published 2026)
Like-named read-outs stand apart in the source and are kept apart here.

Molecular target: T1, human enzyme NAMPT (full length) (Homo sapiens, UniProt P43490)
T1 construct: human enzyme NAMPT (full length)
Test: NMN fluorescence biochemical assay (stimulation of NMN synthesis by NAMPT)
Conditions: for EC50: concentration giving half-maximal activation, read-out: Enzymatic EC50; for Enzymatic Emax: fold change of maximal activation compared to DMSO
Description: Certain compounds described herein were assayed for their ability to stimulate the synthesis of nicotinamide mononucleotide (NMN) by human enzyme NAMPT (full length). The enzymatic assay was performed in a 384-well plate using a TMD buffer (50 mM Tris-HCl, 10 mM MgCl2, 2 mM DTT, pH 7.5). Purified NAMPT (100 nM) was pre-incubated with 0.2 μL. DMSO solution of the test compound (with a series of concentrations) in 10 μL TMD buffer for 15 min at 37° C. The reaction was initiated by adding 10 μL solution of NAM (50 μM), PRPP (100 μM), and ATP (4 mM) in TMD buffer. After 1 h of incubation at 37 T, an aliquot (20 μL) of the NMN-containing sample was sequentially mixed with 5 μL of 20% acetophenone (in DMSO) and 5 μL of 2M KOH. The mixture was placed on ice for 10 min. Next, 22.5 μL of 100% formic acid was added to each sample, vortexed, and then incubated at 37° C. for 20 min. Fluorescence (Ex/Em=382/445 nm) was measured using an Envision plate reader. The potency measurements for the test compounds were quantified and represented as EC50 (concentration of a compound that gives half-maximal activation) and Emax (fold change of a compound's maximal activation compared to DMSO).

[1] = NMN synthesis by purified human NAMPT (100 nM)
[2] = NMN fluorescence assay, purified human NAMPT 100 nM

T1 sequence (P43490 whole entry): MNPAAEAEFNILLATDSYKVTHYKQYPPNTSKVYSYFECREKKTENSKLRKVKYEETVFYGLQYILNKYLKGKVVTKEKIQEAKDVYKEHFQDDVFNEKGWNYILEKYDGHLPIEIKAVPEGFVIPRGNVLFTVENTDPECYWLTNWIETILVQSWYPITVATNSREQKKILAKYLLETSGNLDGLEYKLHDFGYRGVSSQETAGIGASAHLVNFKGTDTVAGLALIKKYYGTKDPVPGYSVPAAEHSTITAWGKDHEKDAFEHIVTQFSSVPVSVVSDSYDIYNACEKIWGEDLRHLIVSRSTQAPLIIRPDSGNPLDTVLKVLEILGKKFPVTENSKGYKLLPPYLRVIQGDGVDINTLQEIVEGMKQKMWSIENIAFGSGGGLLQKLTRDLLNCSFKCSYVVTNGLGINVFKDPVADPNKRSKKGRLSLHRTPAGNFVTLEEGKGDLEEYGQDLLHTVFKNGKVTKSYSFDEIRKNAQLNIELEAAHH

EC50 [1] [µM] | Enzymatic Emax | EC50 [2] [µM] | Structure (SMILES)
≥ 5 | C (2≥C) | – | CC1c2ccccc2C(=O)N1Cc1cc(F)c2[nH]nnc2c1 (stereo not shown) [Compound 290, 2-((7-fluoro-1H-benzo[d][1,2,3]triazol-5-yl)methyl)-3-methylisoindolin-1-one]
≥ 5 | C (2≥C) | – | CN(C)c1ccc2c(c1)C(=O)N(Cc1ccc(O)cc1)C2 [Compound 305, 6-(dimethylamino)-2-(4-hydroxybenzyl) isoindolin-1-one]
≥ 5 | C (2≥C) | – | O=C1c2ccccc2C(C(F)(F)c2ccccc2)N1Cc1ccc2[nH]c(=O)oc2c1 (stereo not shown) [Compound 306, 6-((1-(difluoro(phenyl)methyl)-3-oxoisoindolin-2-yl)methyl)benzo[d]oxazol-2(3H)-one]
≥ 5 | C (2≥C) | – | Cn1ncc(Cl)c1C[C@@H]1c2ccccc2C(=O)N1C/C=C/c1c[nH]nn1 [Compound 313, (R,E)-2-(3-(1H-1,2,3-triazol-4-yl)allyl)-3-((4-chloro-1-methyl-1H-pyrazol-5-yl)methyl)isoindolin-1-one]
– | B (3≥B>2) | 0.5 to 5 | O=C1c2ccccc2C(Cc2ncccc2Br)N1CC1CC2(CC(O)C2)C1 (stereo not shown) [Compound 321, 3-((3-bromopyridin-2-yl)methyl)-2-((6-hydroxyspiro[3.3]heptan-2-yl)methyl) isoindolin-1-one]
– | B (3≥B>2) | ≥ 5 | O=C1c2ccccc2C(Cc2ncccc2Br)N1Cc1ccn2c(CO)nnc2c1 (stereo not shown) [Compound 323, 3-((3-bromopyridin-2-yl)methyl)-2-((3-(hydroxymethyl)-[1,2,4]triazolo[4,3-a]pyridin-7-yl)methyl)isoindolin-1-one]
– | B (3≥B>2) | 0.5 to 5 | Cc1cc2[nH]c(=O)oc2cc1CN1C(=O)c2ccccc2C1Cc1ncccc1Br (stereo not shown) [Compound 333, 6-((1-((3-bromopyridin-2-yl)methyl)-3-oxoisoindolin-2-yl)methyl)-5-methylbenzo[d]oxazol-2(3H)-one]
– | C (2≥C) | 0.5 to 5 | O=C1c2ccccc2C(Cc2ncccc2Br)N1Cc1ccc2[nH]c(=O)ncc2c1 (stereo not shown) [Compound 348, 6-((1-((3-bromopyridin-2-yl)methyl)-3-oxoisoindolin-2-yl)methyl)quinazolin-2(1H)-one]
– | A (A>3) | ≥ 5 | Cc1cc(Cl)n(CC2c3ccccc3C(=O)N2Cc2ccc3[nH]nnc3c2)n1 (stereo not shown) [Compound 355, 2-((1H-benzo[d][1,2,3]triazol-5-yl)methyl)-3-((5-chloro-3-methyl-1H-pyrazol-1-yl)methyl)isoindolin-1-one]
– | A (A>3) | 0.5 to 5 | Cc1nc2cc(CN3C(=O)c4ccccc4C3Cc3ncccc3Br)ccc2[nH]1 (stereo not shown) [Compound 358, 3-((3-bromopyridin-2-yl)methyl)-2-((2-methyl-1H-benzo[d]imidazol-5-yl)methyl)isoindolin-1-one]
– | B (3≥B>2) | 0.5 to 5 | O=C1c2ccccc2C(Cc2nn(C(CO)CO)cc2Cl)N1Cc1ccc2[nH]nnc2c1 (stereo not shown) [Compound 363, 2-((1H-benzo[d][1,2,3]triazol-5-yl)methyl)-3-((4-chloro-1-(1,3-dihydroxypropan-2-yl)-1H-pyrazol-3-yl)methyl)isoindolin-1-one]
– | B (3≥B>2) | 0.5 to 5 | Cc1cnn(C)c1CC1c2ccccc2C(=O)N1Cc1ccc2[nH]nnc2c1 (stereo not shown) [Compound 365, 2-((1H-benzo[d][1,2,3]triazol-5-yl)methyl)-3-((1,4-dimethyl-1H-pyrazol-5-yl)methyl)isoindolin-1-one]
– | C (2≥C) | 0.5 to 5 | N#Cc1nc2cc(CN3C(=O)c4ccccc4C3Cc3ncccc3Br)ccc2[nH]1 (stereo not shown) [Compound 366, 5-((1-((3-bromopyridin-2-yl)methyl)-3-oxoisoindolin-2-yl)methyl)-1H-benzo[d]imidazole-2-carbonitrile]
– | C (2≥C) | ≥ 5 | O=C1c2ccccc2C(Cc2ncccc2Br)N1Cc1ccc2[nH]c(O)nc2c1 (stereo not shown) [Compound 367, 3-((3-bromopyridin-2-yl)methyl)-2-((2-hydroxy-1H-benzo[d]imidazol-5-yl)methyl)isoindolin-1-one]
– | B (3≥B>2) | 0.5 to 5 | Cc1onc(C#N)c1C(O)C1c2ccccc2C(=O)N1Cc1ccc2[nH]nnc2c1 (stereo not shown) [Compound 374, 4-((2-((1H-benzo[d][1,2,3]triazol-5-yl)methyl)-3-oxoisoindolin-1-yl)(hydroxy)methyl)-5-methylisoxazole-3-carbonitrile]
– | B (3≥B>2) | < 0.5 | Cn1ncc(Cl)c1CC1c2cc(C3CNC3)ccc2C(=O)N1Cc1ccc2[nH]nnc2c1 (stereo not shown) [Compound 383, 2-((1H-benzo[d][1,2,3]triazol-5-yl)methyl)-5-(azetidin-3-yl)-3-((4-chloro-1-methyl-1H-pyrazol-5-yl)methyl)isoindolin-1-one]
– | B (3≥B>2) | 0.5 to 5 | Cc1[nH]nnc1/C=C/CN1C(=O)c2ccccc2C1Cc1ncccc1Br (stereo not shown) [Compound 386, (E)-3-((3-bromopyridin-2-yl)methyl)-2-(3-(5-methyl-1H-1,2,3-triazol-4-yl)allyl)isoindolin-1-one]
– | B (3≥B>2) | 0.5 to 5 | COC(C)(C)c1ccc2c(c1)C(Cc1c(Cl)cnn1C)N(Cc1ccc3[nH]nnc3c1)C2=O (stereo not shown) [Compound 396, 2-((1H-benzo[d][1,2,3]triazol-5-yl)methyl)-3-((4-chloro-1-methyl-1H-pyrazol-5-yl)methyl)-5-(2-methoxypropan-2-yl)isoindolin-1-one]
– | C (2≥C) | ≥ 5 | O=C1c2ccccc2C(Cc2ncccc2Br)N1[C@H]1C[C@H](c2c[nH]nn2)C1 (stereo partly shown) [Compound 403, 2-((1r,3r)-3-(1H-1,2,3-triazol-4-yl)cyclobutyl)-3-((3-bromopyridin-2-yl)methyl)isoindolin-1-one]
– | C (2≥C) | ≥ 5 | O=C1CC2(CN1)CC(CN1C(=O)c3ccccc3C1Cc1ncccc1Br)C2 (stereo not shown) [Compound 424, 3-((3-bromopyridin-2-yl)methyl)-2-((7-oxo-6-azaspiro[3.4]octan-2-yl)methyl) isoindolin-1-one]
– | C (2≥C) | < 0.5 | O=C1c2ccccc2C(Cc2ncccc2Br)N1Cc1ccc(O)cc1 (stereo not shown) [Compound 429, 3-((3-bromopyridin-2-yl)methyl)-2-(4-hydroxybenzyl)isoindolin-1-one]
– | B (3≥B>2) | ≥ 5 | Cn1ncc(Cl)c1CC1c2cccc(CC#N)c2C(=O)N1CC1CC2(CNC(=O)O2)C1 (stereo not shown) [Compound 432, 2-(1-((4-chloro-1-methyl-1H-pyrazol-5-yl)methyl)-3-oxo-2-((6-oxo-5-oxa-7-azaspiro[3.4]octan-2-yl)methyl)isoindolin-4-yl)acetonitrile]
– | B (3≥B>2) | 0.5 to 5 | COc1cccc2c1C(=O)N(CC1CC3(CNC(=O)O3)C1)C2Cc1c(Cl)cnn1C (stereo not shown) [Compound 433, 2-((1-((4-chloro-1-methyl-1H-pyrazol-5-yl)methyl)-4-methoxy-3-oxoisoindolin-2-yl)methyl)-5-oxa-7-azaspiro[3.4]octan-6-one]
